Assays:
PC3MM cells = assay: Cell Proliferation Assay (Cell Titer Glo), PC3MM; type: cell-based; conditions: cell proliferation, PC3MM cells; read-out: CPEC50 PC3MM
Summary of the method: (§1)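 Cells seeded at 1000/well, allowed to adhere 3-5 h, then exposed to DMSO-dissolved compounds for 3 days at 37° C., 5% CO2. Medium replaced before Cell Titer Glo addition; luminescence read after 10 min.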

PDK1 kinase = biological target: T1, PDK1 kinase (Homo sapiens, UniProt O15530); assay: PDK1 Kinase Alpha Screen Assay; type: biochemical; conditions: PDK1 Kinase Alpha Screen Assay; read-out: PDK1 IC50
T1 sequence (O15530 1-556): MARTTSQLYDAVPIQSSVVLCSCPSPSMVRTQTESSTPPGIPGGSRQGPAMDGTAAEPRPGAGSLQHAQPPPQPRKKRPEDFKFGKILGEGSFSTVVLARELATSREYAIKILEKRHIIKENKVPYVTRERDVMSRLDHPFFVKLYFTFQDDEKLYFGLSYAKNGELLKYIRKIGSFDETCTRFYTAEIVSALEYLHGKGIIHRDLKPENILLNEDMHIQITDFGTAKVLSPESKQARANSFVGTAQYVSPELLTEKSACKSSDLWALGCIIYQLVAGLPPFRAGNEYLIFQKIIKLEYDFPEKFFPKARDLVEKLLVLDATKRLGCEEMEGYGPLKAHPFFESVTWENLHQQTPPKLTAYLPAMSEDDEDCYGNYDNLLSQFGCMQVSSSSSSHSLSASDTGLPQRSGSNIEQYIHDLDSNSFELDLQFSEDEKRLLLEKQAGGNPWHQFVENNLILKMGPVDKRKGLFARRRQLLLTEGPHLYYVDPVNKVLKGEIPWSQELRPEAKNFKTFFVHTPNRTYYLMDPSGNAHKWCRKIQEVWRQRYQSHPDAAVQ
Summary of the method: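 Test compounds were incubated with PDK1 kinase, 10 uM ATP and 50 nM biotinylated peptide substrate for 3-18 hours at pH 7.5 with 2.5% DMSO. Peptide phosphorylation was then detected by AlphaScreen proximity luminescence using a phospho-(Ser/Thr) PKA substrate antibody.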

A2780 cells = assay: Cell Proliferation Assay (Cell Titer Glo), A2780; type: cell-based; conditions: Homo sapiens; cell proliferation, A2780 cells; read-out: CPEC50 A2780
Summary of the method: as §1

Row | Compound | EC50 (PC3MM cells) | IC50 (PDK1 kinase) | EC50 (A2780 cells)
1 | NS(=O)(=O)c1ccc(Nc2ncc3cccc(C(=O)N4CCCC4)c3n2)cc1 [Compound 760, 4-(8-(pyrrolidine-1-carbonyl)quinazolin-2-ylamino)benzenesulfonamide] | < 5 µM | < 5 µM | 5 to 10 µM
2 | NS(=O)(=O)c1ccc(Nc2ncc3cccc(-c4ccc5c(c4)OCO5)c3n2)cc1 [Compound 739, 4-(8-(benzo[d][1,3]dioxol-5-yl)quinazolin-2-ylamino)benzenesulfonamide] | < 5 µM | < 5 µM | < 5 µM
3 | CN1CCN(C(=O)c2cccc3cnc(Nc4ccc(S(N)(=O)=O)cc4)nc23)CC1 [Compound 769, 4-(8-(4-methylpiperazine-1-carbonyl)quinazolin-2-ylamino)benzenesulfonamide] | < 5 µM | < 5 µM | 5 to 10 µM
4 | NS(=O)(=O)c1ccc(Nc2ncc3ccc(-c4cnc(=O)[nH]c4)cc3n2)cc1 [Compound 844, 4-(7-(2-oxo-1,2-dihydropyrimidin-5-yl)quinazolin-2-ylamino)benzenesulfonamide] | < 5 µM | < 5 µM | 5 to 10 µM
5 | NS(=O)(=O)c1ccc(Nc2ncc3cccc(-c4ccnc(N5CCNC(=O)C5)c4)c3n2)cc1 [Compound 755, 4-(8-(2-(3-oxopiperazin-1-yl)pyridin-4-yl)quinazolin-2-ylamino)benzenesulfonamide] | < 5 µM | < 5 µM | < 5 µM
6 | NS(=O)(=O)c1ccc(Nc2ncc3cccc(C(=O)N4CCNC(=O)C4)c3n2)cc1 [Compound 808, 4-(8-(3-oxopiperazine-1-carbonyl)quinazolin-2-ylamino)benzenesulfonamide] | < 5 µM | < 5 µM | 5 to 10 µM
7 | CN1CCC(NC(=O)c2ccc3cnc(Nc4ccc(S(N)(=O)=O)cc4)nc3c2)CC1 [Compound 767, N-(1-methylpiperidin-4-yl)-2-(4-sulfamoylphenylamino)quinazoline-7-carboxamide] | < 5 µM | < 5 µM | 5 to 10 µM
8 | CC(C)N1CCC(Oc2cccc3cnc(Nc4cccc(S(=O)(=O)N5CCOCC5)c4)nc23)CC1 [Compound 774, 8-(1-isopropylpiperidin-4-yloxy)-N-(3-(morpholinosulfonyl)phenyl)quinazolin-2-amine] | < 5 µM | < 5 µM | < 5 µM
9 | CC(=O)Nc1cccc(-c2cccc3cnc(Nc4ccc(S(N)(=O)=O)cc4)nc23)c1 [Compound 737, N-(3-(2-(4-sulfamoylphenylamino)quinazolin-8-yl)phenyl)acetamide] | < 5 µM | < 5 µM | < 5 µM
10 | COc1cc(-c2cccc3cnc(Nc4ccc(S(N)(=O)=O)cc4)nc23)c(Cl)cn1 [Compound 765, 4-(8-(5-chloro-2-methoxypyridin-4-yl)quinazolin-2-ylamino)benzenesulfonamide] | < 5 µM | < 5 µM | < 5 µM
11 | CN1CCN(S(=O)(=O)c2ccc(Nc3ncc4cccc(OC5CCNCC5)c4n3)cc2)CC1 [Compound 778, N-(4-(4-methylpiperazin-1-ylsulfonyl)phenyl)-8-(piperidin-4-yloxy)quinazolin-2-amine] | < 5 µM | < 5 µM | < 5 µM
12 | NS(=O)(=O)c1ccc(Nc2ncc3ccc(Nc4ccc5cn[nH]c5c4)cc3n2)cc1 [Compound 815, 4-(7-(1H-indazol-6-ylamino)quinazolin-2-ylamino)benzenesulfonamide] | < 5 µM | < 5 µM | < 5 µM
13 | CC(=O)NCCNc1ccc(-c2cccc3cnc(Nc4ccc(S(N)(=O)=O)cc4)nc23)cn1 [Compound 829, N-(2-(5-(2-(4-sulfamoylphenylamino)quinazolin-8-yl)pyridin-2-ylamino)ethyl)acetamide] | < 5 µM | < 5 µM | < 5 µM
14 | COCCNC(=O)c1cccc2cnc(Nc3ccc(S(N)(=O)=O)cc3)nc12 [Compound 761, N-(2-methoxyethyl)-2-(4-sulfamoylphenylamino)quinazoline-8-carboxamide] | 5 to 10 µM | < 5 µM | < 5 µM
